Source: patent US8329693B2, “Method for the prevention of thromboembolic disorders” (Orion Corporation, priority 2004, dated 2012)

How the values were obtained:
[1] = test system: Dahl SS rats on high-salt diet; experiment: Seven-point Neuroscore test, Dahl salt-sensitive rat stroke model; type: in vivo; conditions: throughout the study (weeks 1-8); grade 6 = normal
Experimental: (§1) Dahl SS rats were divided into three treatment groups: High-Salt diet+vehicle (n=20), High-Salt diet+Levosimendan 1 mg/kg/day (n=20), and Normal-Salt diet control (n=4). High salt diet contained 7% of NaCl in commercial low salt diet. Feeding with the high-salt diet was started at the age of 6 weeks and continued 7 weeks until the end of the study. Levosimendan was administered via drinking water (2 mg/l of levosimendan in drinking water). The administration was started at the same time as the high-salt diet and continued until the end of the study. The consumption of drinking water and food as well as the body weight and general health of the animals were monitored. MRI was performed once-a-week during the weeks 2-8. FOB and 7-point Neuroscore testing were performed once-a-week during the weeks 1-3 and twice-a-week during weeks the 4-8.
(§2) Functional observational battery (FOB) and Neuroscore testing were performed once-a-week during weeks 1-3 and twice-a-week during weeks 4-8.
A seven-point neuroscore test was used to assess motor and behavioral deficits (modified from Zausinger et al. Brain Res. 863:94-105, 2000). The neurological test was conducted by an investigator blinded to the treatment status of the rats. The seven-point scale was as follows:
Grade 6: Normal extension of both forelimbs towards the floor when lifted gently by the tail. […]

[2] = test system: Dahl SS rats on high-salt diet; experiment: Functional observational battery (FOB), Dahl salt-sensitive rat stroke model; type: in vivo; conditions: weeks 1-8, levosimendan 1 mg/kg/day
Experimental: as §1, §2
All rats were observed using standardized procedures. The procedures included observation of rats in the home cage, while moving in open arena and through manipulative tests. The measures included:
(1) Home-Cage Measurements:
Body position, Respiration, Vocalization and Palpebral closure.
(2) Hand-Held Observations: […]

Kininogen = experiment: Effect on kininogen expression in rat heart (2-DE gels, silver staining, MALDI-TOF); type: in vivo, Rattus novergicus; conditions: levosimendan orally 20 mg/l in tab water for eight days
Experimental: Rats were given levosimendan orally 20 mg/l in tab water and controls only tab water for eight days. Hearts were frozen in liquid nitrogen and stored at −80° C. The heart tissues were lyophilized on ice over night and incubated in lysis buffer; 9 M urea, 20 mM Tris-HCl pH 7.4, 50 mM KCl, 3 mM EDTA pH 7.5, 0.5% IPG buffer 3-10 NL, 5 mM PMSF, 1% DTT and Benzoase 100 Units for 10 min at room temperature. The protein solution was then sonicated 2×15 s and centrifuged at 14000 rpm for 5 min. The supernatants were collected and the protein amount measured based on the protein assay kit from BioRad. 40 μg protein solution was diluted in 350 μl of rehydration buffer; 7 M urea, 2 M thiourea, 2 mM TBP, 0.5% IPG buffer 3-10 NL, 4% CHAPS and 0.2% BFB, incubated for 30 min at room temperature and centrifuged for 5 min at 14000 rpm. […]
The focused strips were equilibrated in the following buffer: 6 M urea, 50 mM Tris-HCl, pH 8.8, 2% SDS, 30% glycerol, 2% DTT, 2.5% iodoacetamide and 0.2% BFB 2×10 min at room temperature. […] The silver stained gels were analyzed by PD-QUEST(6.2) 2-DE software (BIO-RAD). […]
All samples were prepared by reversed phase pipette tips C18 (ZipTip, Millipore). […] The samples were analyzed in a TOF mass spectrometer (Voyager-DE PRO). […] The masses of the obtained peptides were analysed by the MS-fit program on the Expasy Molecular Biology server PeptIdent.

[3] = test system: Dahl SS rats on high-salt diet; experiment: Mortality in Dahl salt-sensitive rat stroke model (Experiment 2); type: in vivo; conditions: High-Salt diet + Levosimendan 1 mg/kg/day (2 mg/l in drinking water), 7 weeks, n=20; vehicle group 70%
Experimental: Effect of levosimendan on the incidence of cerebral strokes in Dahl salt-sensitive rat stroke model was studied using Magnetic Resonance Imaging (MRI) and behavioural tests (Neuroscore and Functional Observational Battery (FOB)).
as §1

`CC1CC(=O)NN=C1c1ccc(NN=C(C#N)C#N)cc1` (single isomer, unassigned; (-)) [levosimendan, (−)-enantiomer of [[4-(1,4,5,6-tetrahydro-4-methyl-6-oxo-3-pyridazinyl)phenyl]hydrazono]propanedinitrile] was tested, and the “seven-point Neuroscore” value [1] was “scored maximum scores throughout the study”, the “stroke-associated behavioural deficits observed in FOB testing” value [2] was “markedly reduce and postpone” and the “kininogen protein expression in rat heart versus control” value (Kininogen) was “ten fold up-regulated”. The “mortality during the study” value [3] was 5%.
